“And” between values parts separate entries of the source, which are not always exact repeats. Equal entries are not always repeated.
Tests used:
Mast cells (MC) = test: Anti-FcεRI-induced MC degranulation (β-hexosaminidase release); format: cell-based, human; settings: for Mean percent degranulation, TGA + XL: TGA Treatment @ 10 μg/ml, Exp 1-5 and Average (±SD)
Procedure: MC are a component of the inflammatory response. As such, cultures of human Mast Cells can be used for screening the activity of different fullerene derivatives to evaluate their potential activity in animal models. In this example, human skin tissue was received from the Cooperative Human Tissue Network and MC purified and cultured as described in Kepley, C. L. Int. Arch. Allergy Immunol. 138, 29-39 (2005). The MC were cultured in media containing stem cell factor which is removed from the culture 24 hours prior to experimentation.
For activation, MC were suspended in fresh medium (without cytokines) and incubated for 16 hours with or without fullerene derivatives at 37° C. in a 6% CO2 incubator. […] The next morning, cells were washed and stimulated with anti-FcεRI Abs (3B4; 1 μg/ml) for 30 minutes (β-hexosaminidase) or overnight (GM-CSF) at 37° C. in a 6% CO2 incubator and mediator release measured as described in Zhao, W., Kepley, C. L., Morel, P. A., Okumoto, L. M., Fukuoka, Y., and Schwartz, L. B. J Immunol. 177, 694-701 (2006). All MC mediator release studies were performed in triplicate.
Cells were cultured with fixed concentrations of a fullerene derivative (10 μg/ml; FIGS. 8A and 9A) or different concentrations (FIGS. 8B and 9B) for 16 h, washed and stimulated for 30 min (FIGS. 8A and 8B) or 24 hours (FIGS. 9A and 9B) with optimal concentrations of αanti-FcεRI Abs (3B4; 1 μg/ml). Cells were centrifuged and β-hexosaminidase release and GMCSF levels determined by ELISA.

Ames test = settings: not shown
Description: Taken together, the derivatives described herein are not cytotoxic to several cell lines tested and appear to have no acute in vivo cytotoxic effects.

- IC50 (degranulation) (Mast cells (MC); maximum inhibition set to 100%): 10.9 (±3.5) μg/ml
Substance: C70-tetraglycolic acid [TGA]
- Mean percent degranulation, TGA + XL (Mast cells (MC)): 52.7% and 39.1% and 50.1% and 53.4% and 40.1%
- Mean percent degranulation, TGA + XL (Mast cells (MC); mean): 47.1 (±6.9) percent
- mutagenic potential (Ames test): No mutagenic potential

Source: patent US20110251158A1, “FULLERENE THERAPIES FOR INFLAMMATION AND INHIBITION OF BUILD-UP OF ARTERIAL PLAQUE” (Luna Innovations Incorporated, priority 2008, published 2011)
